Measurements reported in patent US6855730B2, “3-methylidenyl-2-indolinone modulators of protein kinase” (Sugen, Inc., priority 1998, dated 2005).

Tests used:
[1] = molecular target: T1, flkGST (Homo sapiens, UniProt P35968); experiment: bio flkGST assay; type: biochemical
T1 construct: GST

[2] = molecular target: T2, PDGFR-β (Homo sapiens, UniProt P09619); experiment: Biochemical PDGFR assay (ELISA, PDGFR-β expressing NIH 3T3 cell lysate); settings: read-out: bio PDGF IC50
T2 construct: host or cells: NIH 3T3
T2 sequence (P09619 33-1106): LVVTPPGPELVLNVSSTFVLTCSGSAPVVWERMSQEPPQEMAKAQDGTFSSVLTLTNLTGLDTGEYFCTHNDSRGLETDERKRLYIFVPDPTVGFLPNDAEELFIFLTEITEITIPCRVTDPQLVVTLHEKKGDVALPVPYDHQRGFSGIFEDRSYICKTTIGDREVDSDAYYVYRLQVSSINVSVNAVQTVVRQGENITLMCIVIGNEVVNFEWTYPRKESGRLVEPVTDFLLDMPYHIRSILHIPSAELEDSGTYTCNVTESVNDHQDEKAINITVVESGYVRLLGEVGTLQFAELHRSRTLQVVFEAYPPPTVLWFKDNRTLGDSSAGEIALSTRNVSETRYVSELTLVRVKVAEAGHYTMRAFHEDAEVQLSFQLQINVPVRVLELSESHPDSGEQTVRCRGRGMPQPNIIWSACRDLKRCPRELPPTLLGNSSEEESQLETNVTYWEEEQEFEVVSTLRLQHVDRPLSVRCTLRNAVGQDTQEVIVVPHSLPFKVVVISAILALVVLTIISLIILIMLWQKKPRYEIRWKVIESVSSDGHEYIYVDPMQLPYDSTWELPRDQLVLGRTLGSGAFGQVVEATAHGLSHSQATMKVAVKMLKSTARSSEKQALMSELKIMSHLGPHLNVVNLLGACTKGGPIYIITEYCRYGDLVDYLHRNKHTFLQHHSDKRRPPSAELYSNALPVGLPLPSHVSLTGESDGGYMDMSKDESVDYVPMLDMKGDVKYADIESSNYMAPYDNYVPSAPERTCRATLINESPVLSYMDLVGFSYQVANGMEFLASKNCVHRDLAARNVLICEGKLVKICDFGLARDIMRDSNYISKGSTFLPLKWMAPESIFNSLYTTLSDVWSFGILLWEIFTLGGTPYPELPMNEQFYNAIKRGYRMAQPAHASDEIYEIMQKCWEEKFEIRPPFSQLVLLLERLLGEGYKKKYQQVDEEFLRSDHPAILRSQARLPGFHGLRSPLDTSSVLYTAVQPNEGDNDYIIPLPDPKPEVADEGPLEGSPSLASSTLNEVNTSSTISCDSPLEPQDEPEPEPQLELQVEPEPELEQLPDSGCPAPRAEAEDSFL
Summary of the method: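 Phosphorylation was read by ELISA (anti-phosphotyrosine serum, peroxidase secondary, ABTS at 410 nm) after a 30 min room-temperature reaction with 20 μM ATP, EDTA-stopped. Kinase was lysate-derived PDGFR-β (NIH 3T3) immobilised via 28D4C10 antibody, compound added 30 min before ATP.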

[3] = molecular target: Myc-GyrB-FGFR fusion protein (Homo sapiens, UniProt P11362); experiment: Biochemical FGFR assay (ELISA); settings: read-out: bio fgfR1 IC50
Sequence of Myc-GyrB-FGFR fusion protein (P11362 478-767 limits assumed): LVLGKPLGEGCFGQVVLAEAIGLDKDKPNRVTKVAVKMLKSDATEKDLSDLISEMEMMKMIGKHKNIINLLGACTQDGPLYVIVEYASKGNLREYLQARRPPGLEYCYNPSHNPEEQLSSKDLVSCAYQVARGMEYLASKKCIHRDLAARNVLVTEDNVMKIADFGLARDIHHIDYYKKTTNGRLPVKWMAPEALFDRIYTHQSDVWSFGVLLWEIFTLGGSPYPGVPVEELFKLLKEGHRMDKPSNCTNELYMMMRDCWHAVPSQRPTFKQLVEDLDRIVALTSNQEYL

[4] = molecular target: EGFR (Homo sapiens, UniProt P00533); experiment: Biochemical EGFR assay (ELISA, A431 cell lysate); set-up: A431 cell lysate (Screening Lab, SUGEN, Inc.); host or cells: A431; settings: read-out: bio EGFr IC50
Sequence of EGFR (P00533 25-1210): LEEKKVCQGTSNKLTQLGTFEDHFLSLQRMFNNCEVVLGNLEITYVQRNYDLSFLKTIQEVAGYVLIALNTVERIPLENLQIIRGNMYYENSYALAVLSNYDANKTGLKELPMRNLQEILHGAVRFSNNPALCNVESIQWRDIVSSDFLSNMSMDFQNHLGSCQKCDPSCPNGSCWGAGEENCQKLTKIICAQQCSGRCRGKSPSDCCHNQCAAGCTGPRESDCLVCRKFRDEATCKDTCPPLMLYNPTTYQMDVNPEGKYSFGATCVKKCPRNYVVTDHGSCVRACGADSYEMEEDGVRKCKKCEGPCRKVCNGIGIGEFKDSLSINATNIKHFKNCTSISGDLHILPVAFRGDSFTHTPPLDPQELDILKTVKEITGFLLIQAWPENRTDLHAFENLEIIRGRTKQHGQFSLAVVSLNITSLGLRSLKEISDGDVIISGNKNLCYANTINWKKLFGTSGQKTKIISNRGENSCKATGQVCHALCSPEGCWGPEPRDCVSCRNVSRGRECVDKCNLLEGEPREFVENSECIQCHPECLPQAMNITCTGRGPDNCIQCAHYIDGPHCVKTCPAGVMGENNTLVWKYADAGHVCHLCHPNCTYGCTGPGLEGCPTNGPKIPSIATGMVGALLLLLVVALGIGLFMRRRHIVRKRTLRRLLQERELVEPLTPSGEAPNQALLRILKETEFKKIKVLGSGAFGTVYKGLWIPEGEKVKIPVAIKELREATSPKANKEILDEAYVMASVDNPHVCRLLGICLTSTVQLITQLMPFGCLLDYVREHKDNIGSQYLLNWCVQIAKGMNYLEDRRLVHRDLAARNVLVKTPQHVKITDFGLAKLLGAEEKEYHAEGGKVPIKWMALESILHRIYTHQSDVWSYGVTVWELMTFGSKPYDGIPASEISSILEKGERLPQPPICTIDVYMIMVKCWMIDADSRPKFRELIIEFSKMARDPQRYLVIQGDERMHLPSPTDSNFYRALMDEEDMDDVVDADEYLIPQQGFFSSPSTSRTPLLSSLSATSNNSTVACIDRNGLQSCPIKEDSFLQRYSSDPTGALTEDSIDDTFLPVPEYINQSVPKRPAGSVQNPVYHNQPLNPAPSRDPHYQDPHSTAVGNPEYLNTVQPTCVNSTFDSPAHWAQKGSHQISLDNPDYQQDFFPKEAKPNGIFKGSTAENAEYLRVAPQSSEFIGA
Procedure: This assay measures the in vitro kinase activity of EGFR using ELISA.
Materials and Reagents • 1. […] SUMO1 monoclonal anti-EGFR antibody (Biochemistry Lab, SUGEN, Inc.). • 3. PBS (Dulbecco's Phosphate-Buffered Saline, Gibco Catalog No. 450-1300EB). • 4. TBST Buffer
• 6. A431 cell lysate (Screening Lab, SUGEN, Inc.) • 7. TBS Buffer:
Prepare a 1.0 mM solution in dH2O. This reagent should be made up immediately prior to use and kept on ice. • 10. MnCl2.
Prepare a 1.0 M stock solution in dH2O. • 11. ATP/MnCl2 phosphorylation mix
This reagent should be prepared immediately before use and kept on ice. • 12. NUNC 96-well V bottom polypropylene plates (Applied Scientific Cat. No. AS-72092). • 13. Ethylenediaminetetraacetic acid (EDTA)
Prepare 200 mM working solution in dH2O. Adjust to pH 8.0 with 10 N NaOH. • 14. Rabbit polyclonal anti-phosphotyrosine serum (Biochemistry Lab, SUGEN, Inc.) • 15. Goat anti-rabbit IgG peroxidase conjugate (Biosource Cat. No. ALI0404) • 16. ABTS (2,2′-azino-bis(3-ethylbenzthiazoline-6-sulfonic acid), Sigma Cat. No. A-1888).
Mix first two ingredients in about 900 ml dH2O, adjust pH to 4.0 with phosphoric acid. Add ABTS, cover, let sit about 0.5 hr., filter. The solution should be kept in the dark at 4° C. until ready to use. • 17. Hydrogen peroxide 30% solution (Fisher Cat. No. H325) • 18. ABTS/H2O2 • Mix 15 ml ABTS solution and 2.0 μl H2O2. Prepare 5 minutes before use. • 19. 0.2 M HCl
Procedure • 1. Coat Corning 96 well ELISA plates with 0.5 μg SUMO1 in 100 μl PBS per well, store overnight at 4° C. • 2. Remove unbound SUMO1 from wells by inverting plate to remove liquid., Wash 1× with dH2O. Pat the plate on a paper towel to remove excess liquid. • 3. Add 150 μl of Blocking Buffer to each well. Incubate for 30 min. at room temperature with shaking. • 4. Wash plate 3× with deionized water, then once with TBST. Pat plate on a paper towel to remove excess liquid and bubbles. • 5. Dilute lysate in PBS (7 μg lysate/100 μl PBS). • 6. Add 100 μl of diluted lysate to each well. Shake at room temperature for 60 min. • 7. Wash plates as described in 4, above. • 8. Add 120 μl TBS to ELISA plate containing captured EGFR. • 9. Dilute test compound 1:10 in TBS in 96-well polypropylene plates (i.e. 10 μl compound+90 μl TBS). • 10. Add 13.5 μl diluted test compound to ELISA plate. […] Incubate for 30 minutes while shaking at room temperature. • 12. […] After 5 minutes, stop reaction by adding 16.5 μl of 200 mM EDTA (pH 8.0) to each well, shaking continuously. After the EDTA has been added, shake for 1 min. • 14. Wash 4× with deionized water, twice with TBST. • 15. Add 100 μl anti-phosphotyrosine (1:3000 dilution in TBST) per well. Incubate 30-45 min. at room temperature, with shaking. • 16. Wash as described in 4, above. • 17. Add 100 μl Biosource Goat anti-rabbit IgG peroxidase conjugate (1:2000 dilution in TBST) to each well. Incubate 30 min. at room temperature, with shaking. • 18. Wash as described in 4, above. • 19. Add 100 μl of ABTS/H2O2 solution to each well. • 20. Incubate 5 to 10 minutes with shaking. Remove any bubbles. • 21. If necessary stop reaction with the addition of 100 μl 1 0.2 M HCl per well. • 22. Read assay on Dynatech MR7000 ELISA reader. Test Filter: 410 nM Reference Filter: 630 Nm.

[5] = molecular target: pyk2 (Homo sapiens, UniProt Q14289); experiment: bio pyk2 assay; type: biochemical
Sequence of pyk2 (Q14289 whole entry, species assumed): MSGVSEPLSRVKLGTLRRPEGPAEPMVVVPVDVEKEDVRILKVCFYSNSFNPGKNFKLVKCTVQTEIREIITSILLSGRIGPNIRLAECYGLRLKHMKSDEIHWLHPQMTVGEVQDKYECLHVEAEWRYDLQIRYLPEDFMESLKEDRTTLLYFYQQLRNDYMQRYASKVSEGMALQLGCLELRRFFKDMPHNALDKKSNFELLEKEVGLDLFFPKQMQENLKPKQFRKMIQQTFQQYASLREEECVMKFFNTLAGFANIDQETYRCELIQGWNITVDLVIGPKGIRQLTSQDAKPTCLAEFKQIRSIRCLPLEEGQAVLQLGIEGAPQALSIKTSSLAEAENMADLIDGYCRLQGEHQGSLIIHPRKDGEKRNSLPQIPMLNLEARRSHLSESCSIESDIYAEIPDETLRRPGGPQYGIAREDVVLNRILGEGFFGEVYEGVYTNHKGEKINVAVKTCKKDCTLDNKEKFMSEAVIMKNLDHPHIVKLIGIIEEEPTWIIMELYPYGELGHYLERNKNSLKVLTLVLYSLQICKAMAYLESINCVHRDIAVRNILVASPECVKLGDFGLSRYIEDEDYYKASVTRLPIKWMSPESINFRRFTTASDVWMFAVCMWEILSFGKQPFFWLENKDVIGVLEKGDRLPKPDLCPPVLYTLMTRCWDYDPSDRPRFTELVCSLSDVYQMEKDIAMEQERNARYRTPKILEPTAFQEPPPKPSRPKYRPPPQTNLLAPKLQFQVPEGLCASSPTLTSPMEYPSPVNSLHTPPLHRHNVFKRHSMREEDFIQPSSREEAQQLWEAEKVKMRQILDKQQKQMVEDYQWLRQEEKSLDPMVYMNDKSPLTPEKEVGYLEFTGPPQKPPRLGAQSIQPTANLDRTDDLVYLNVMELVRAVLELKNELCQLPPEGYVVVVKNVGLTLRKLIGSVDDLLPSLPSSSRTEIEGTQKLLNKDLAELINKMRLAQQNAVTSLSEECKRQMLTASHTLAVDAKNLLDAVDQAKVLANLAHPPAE

T1 sequence (P35968 786-1356 limits assumed): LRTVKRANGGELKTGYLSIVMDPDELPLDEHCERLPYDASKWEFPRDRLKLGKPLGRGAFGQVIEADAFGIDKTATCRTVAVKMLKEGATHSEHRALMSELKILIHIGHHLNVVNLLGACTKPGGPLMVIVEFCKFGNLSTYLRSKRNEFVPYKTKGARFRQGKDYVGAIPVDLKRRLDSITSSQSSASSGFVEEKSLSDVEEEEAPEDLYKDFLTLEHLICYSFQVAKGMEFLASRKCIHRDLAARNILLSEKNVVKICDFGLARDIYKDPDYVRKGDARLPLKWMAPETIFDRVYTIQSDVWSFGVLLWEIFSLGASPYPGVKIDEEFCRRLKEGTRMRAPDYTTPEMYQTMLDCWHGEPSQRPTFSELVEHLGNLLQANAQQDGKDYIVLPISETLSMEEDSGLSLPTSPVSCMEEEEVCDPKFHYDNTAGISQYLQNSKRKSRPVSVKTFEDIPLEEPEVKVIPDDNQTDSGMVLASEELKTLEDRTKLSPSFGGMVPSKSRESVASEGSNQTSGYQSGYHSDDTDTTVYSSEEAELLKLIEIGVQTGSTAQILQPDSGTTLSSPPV

| SMILES | IC50 [1] [µM] | IC50 [2] [µM] | IC50 [3] [µM] | IC50 [4] [µM] | IC50 [5] [µM] |
| --- | --- | --- | --- | --- | --- |
| CCOC(=O)c1[nH]c(/C=C2\C(=O)Nc3ccc(OC)cc32)c(CCC(=O)O)c1C [Example 140, 4-(2-Carboxyethyl)-5-(5-methoxy-2-oxo-1,2-dihydroindol-3-ylidenemethyl)-3-methyl-1H-pyrrole-2-carboxylic acid ethyl ester] | 6.65 | > 100 | 12.8 | > 100 |  |
| CCOC(=O)c1[nH]c(/C=C2\C(=O)Nc3cc(OC)ccc32)c(CCC(=O)O)c1C [Example 141, 4-(2-Carboxyethyl)-5-(6-methoxy-2-oxo-1,2-dihydroindol-3-ylidenemethyl)-3-methyl-1H-pyrrole-2-carboxylic acid ethyl ester] | 11.5 | 85.1 | 8.38 | > 100 |  |
| CCOC(=O)c1[nH]c(/C=C2\C(=O)Nc3cc(Br)ccc32)c(CCC(=O)O)c1C [Example 142, 5-(6-Bromo-2-oxo-1,2-dihydroindol-3-ylidenemethyl)-4-(2-carboxy-ethyl)-3-methyl-1H-pyrrole-2-carboxylic acid ethyl ester] | 21.1 | > 100 | 5.9 | > 100 |  |
| CCOC(=O)c1[nH]c(/C=C2\C(=O)Nc3cc(-c4ccccc4)ccc32)c(CCC(=O)O)c1C [Example 144, 4-(2-Carboxyethyl)-3-methyl-5-(2-oxo-6-phenyl-1,2-dihydroindol-3-ylidenemethyl)-1H-pyrrole-2-carboxylic acid ethyl ester] | 9.03 | > 100 | 2.77 | > 100 |  |
| CCOC(=O)c1[nH]c(C=C2C(=O)Nc3ccc(S(N)(=O)=O)cc32)c(CCC(=O)O)c1C [Example 145, 4-(2-Carboxyethyl)-3-methyl-5-(2-oxo-5-sulfamoyl-1,2-dihydro-indol-3-ylidenemethyl)-1H-pyrrole-2-carboxylic acid ethyl ester] | 11.8 | > 100 | 15.6 | > 100 |  |
| CCOC(=O)c1[nH]c(/C=C2\C(=O)Nc3ccc(S(=O)(=O)NC)cc32)c(CCC(=O)O)c1C [Example 146] | 15.6 | > 100 | > 20 | > 100 |  |
| CCOC(=O)c1[nH]c(/C=C2\C(=O)Nc3ccc(S(=O)(=O)N(C)C)cc32)c(CCC(=O)O)c1C [Example 147, 4-(2-Carboxyethyl)-5-(5-dimethylsulfamoyl-2-oxo-1,2-dihydro-indol-3-ylidenemethyl)-3-methyl-1H-pyrrole-2-carboxylic acid ethyl ester] | 15.3 | > 100 | > 20 | > 100 |  |
| CCOC(=O)c1[nH]c(/C=C2\C(=O)Nc3ccc(S(=O)(=O)NC(C)C)cc32)c(CCC(=O)O)c1C [Example 148, 4-(2-Carboxyethyl)-5-(5-isopropylsulfamoyl-2-oxo-1,2-dihydro-indol-3-ylidenemethyl)-3-methyl-1H-pyrrole-2-carboxylic acid ethyl ester] | 23.9 | > 100 | > 20 | > 100 |  |
| NS(=O)(=O)c1ccc2c(c1)/C(=C/c1cc3ccccc3[nH]1)C(=O)N2 [Example 159, 3-(1H-Indol-2-ylmethylene)-2-oxo-2,3-dihydro-1H-indole-5-sulfonic acid amide] | 2.87 | 74.1 | > 20 |  |  |

Continued, values first:

| IC50 [1] [µM] | IC50 [2] [µM] | IC50 [3] [µM] | IC50 [4] [µM] | IC50 [5] [µM] | SMILES |
| --- | --- | --- | --- | --- | --- |
| 2.36 | 0.02 | > 20 | > 100 |  | CCOC(=O)c1c(C)[nH]c(/C=C2\C(=O)Nc3ccc(Cl)cc32)c1CCC(=O)O [Example 112, 4-(2-Carboxyethyl)-5-(5-chloro-2-oxo-1,2-dihydroindol-3-ylidenemethyl)-2-methyl-1H-pyrrole-3-carboxylic acid ethyl ester] |
| 9.29 | > 100 |  |  | 4.24 | CCOC(=O)c1c(C)[nH]c(/C=C2\C(=O)Nc3ccc(S(=O)(=O)NC)cc32)c1CCCN1CCOCC1 [Example 118, 2-Methyl-5-(5-methylsulfamoyl-2-oxo-1,2-dihydroindol-3-ylidenemethyl)-4-(3-morpholin-4-ylpropyl)-1H-pyrrole-3-carboxylic acid ethyl ester] |
| 6.33 | > 100 |  |  | 2.02 | CCOC(=O)c1c(C)[nH]c(/C=C2\C(=O)Nc3ccc(S(=O)(=O)NC)cc32)c1CCCN1CCN(C)CC1 [Example 119, 2-Methyl-4-[3-(4-methylpiperazin-1-yl)-propyl]-5-(5-methylsulfamoyl-2-oxo-1,2-dihydroindol-3-ylidenemethyl)-1H-pyrrole-3-carboxylic acid ethyl ester] |
| 16.9 | 15.2 |  |  | 4.71 | CCOC(=O)c1c(C)[nH]c(/C=C2\C(=O)Nc3ccc(S(N)(=O)=O)cc32)c1CCCN1CCOCC1 [Example 123, 2-Methyl-4-(3-morpholin-4-ylpropyl)-5-(2-oxo-5-sulfamoyl-1,2-dihydroindol-3-ylidenemethyl)-1H-pyrrole-3-carboxylic acid ethyl ester] |
|  | 23.2 |  |  | 2.18 | CCOC(=O)c1c(C)[nH]c(/C=C2\C(=O)Nc3cccc(CCO)c32)c1CCCN1CCOCC1 [Example 131, 5-[4-(2-Hydroxyethyl)-2-oxo-1,2-dihydroindol-3-ylidenemethyl]-2-methyl-4-(3-morpholin-4-ylpropyl)-1H-pyrrole-3-carboxylic acid ethyl ester] |
|  | 0.65 |  |  | 0.22 | CCOC(=O)c1c(C)[nH]c(/C=C2\C(=O)Nc3cccc(CCO)c32)c1CCCN1CCCC1 [Example 132, 5-[4-(2-Hydroxyethyl)-2-oxo-1,2-dihydroindol-3-ylidenemethyl]-2-methyl-4-(3-pyrrolidin-1-ylpropyl)-1H-pyrrole-3-carboxylic acid ethyl ester] |
| 7.56 | > 100 | 12.6 | > 100 |  | CCOC(=O)c1[nH]c(/C=C2\C(=O)Nc3cccc(C)c32)c(CCC(=O)O)c1C [Example 139, 4-(2-Carboxyethyl)-3-methyl-5-(4-methyl-2-oxo-1,2-dihydroindol-3-ylidenemethyl)-1H-pyrrole-2-carboxylic acid ethyl ester] |
| 26.9 | > 100 | 16.6 | > 100 |  | CCOC(=O)c1[nH]c(/C=C2\C(=O)Nc3ccc(Br)cc32)c(CCC(=O)O)c1C [Example 143, 5-(5-Bromo-2-oxo-1,2-dihydroindol-3-ylidenemethyl)-4-(2-carboxy-ethyl)-3-methyl-1H-pyrrole-2-carboxylic acid ethyl ester] |
